According to patent US6441029B1, “Method of suppressing tumor growth with combinations of isoprenoids and statins” (Wisconsin Alumni Research Foundation, priority 1997, dated 2002):
“And” between values parts separate entries of the source, which are not always exact repeats. Equal entries are not always repeated.

Columns and labels:
[1] = test system: murine melanoma B16/F10 cells; test: In vitro growth assays of lovastatin, β-ionone and γ-tocotrienol alone and combined (Table 5); type: cell-based
[2] = test system: implanted murine melanoma B16F10 tumors; settings: 50 mg/kg administered ip on alternate days; cited from earlier work
[3] = up to 80 mg/d, five-year follow-up of 745 patients (14 observed, 21 predicted); cited from earlier work
[4] = cited from earlier work

CC[C@H](C)C(=O)O[C@H]1C[C@@H](C)C=C2C=C[C@H](C)[C@H](CC[C@@H]3C[C@@H](O)CC(=O)O3)[C@H]21 [Lovastatin, [1S[1a(R),3α,7β,8β(2S,4S),8aβ]]-1,2,3,7,8,8a-hexahydro-3,7-dimethyl-8-[2-(tetrahydro-4-hydroxy-6-oxo-2H-pyran-2-yl)ethyl]-1-maphthalenyl-2-methylbutanoate, reference compound]
Growth ([1]; 1.5 μmol/L): 71 % of Control
decrease in cell growth ([1]; 2 μM): 50%
Growth ([1]; 2 μmol/L): 50 % of Control and 60 % of Control
Growth ([1]; 2 μmol/L, listed as lovastatin): 50 % of Control
Growth ([1]; 3 μmol/L): 53 % of Control
growth rate relative to controls ([1]; 1.9±0.3 μmol/l, protocol of He, et al.): 61.4±4.6 % the rate of controls
growth of implanted murine melanoma B16F10 tumors [2]: suppressed
reduction in cancer incidence [3]: 33%
dose level at which the incidence and severity of toxicity increased markedly ([4]; Phase I, 7-day courses given monthly, doses 2 to 45 mg/kg): 25 mg/kg
total episodes of toxicity ([4]; sixty of 88 patients): 128 episodes
